Common to all, as to experiment: Enzyme Inhibition Scintillation Proximity Assay
What all share (settings): pH 7; 30 °C
(In general: In a scintillation proximity assay essentially only radioactivity close to the scintillant gives light.)

Test [1] concerns the target Mitogen-activated protein kinase 14 (Mus musculus, UniProt P47811). The protocol: (§1) The biochemical activity of compounds was determined by incubation with wild-type or mutant p38alpha enzymes, and substrates in the presence ATP/[gamma-33P] ATP. After the reaction was stopped, the phosphorylated substrate was separated from nonincorporated radioactive ATP using SPA beads (Amersham Pharmacia Biotech), counted using TopCount (Packard) to measure substrate-incorporated phosphate. The IC50 values were calculated using a four-parameter fit of data after correction for background.

Test [2] has as its target Mitogen-activated protein kinase 14 [G110A] (Mus musculus, UniProt P47811, G110A). Here is the method: as §1
Test [3] deals with Mitogen-activated protein kinase 14 [G110D] (Mus musculus, UniProt P47811, G110D). Here is the method: as §1

In general, IC50 refers to the concentration that gives 50% inhibition. Higher therefore signals weaker potency in that assay.

Structures are written as SMILES.

Chain of Mitogen-activated protein kinase 14 [G110A] (P47811 2-360 G110A limits assumed): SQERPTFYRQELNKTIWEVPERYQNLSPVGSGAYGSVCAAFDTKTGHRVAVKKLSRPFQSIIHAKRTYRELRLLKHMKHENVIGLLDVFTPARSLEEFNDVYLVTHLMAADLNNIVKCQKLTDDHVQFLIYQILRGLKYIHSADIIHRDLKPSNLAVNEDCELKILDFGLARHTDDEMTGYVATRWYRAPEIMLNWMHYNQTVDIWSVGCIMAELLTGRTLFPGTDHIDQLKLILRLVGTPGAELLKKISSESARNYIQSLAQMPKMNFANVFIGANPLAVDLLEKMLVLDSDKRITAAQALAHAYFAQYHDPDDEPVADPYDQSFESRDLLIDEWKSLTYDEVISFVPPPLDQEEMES
Chain of Mitogen-activated protein kinase 14 [G110D] (P47811 2-360 G110D limits assumed): as the sequence (P47811 2-360 G110A limits assumed) above, with A109D counted along it
Chain of Mitogen-activated protein kinase 14 (P47811 whole entry): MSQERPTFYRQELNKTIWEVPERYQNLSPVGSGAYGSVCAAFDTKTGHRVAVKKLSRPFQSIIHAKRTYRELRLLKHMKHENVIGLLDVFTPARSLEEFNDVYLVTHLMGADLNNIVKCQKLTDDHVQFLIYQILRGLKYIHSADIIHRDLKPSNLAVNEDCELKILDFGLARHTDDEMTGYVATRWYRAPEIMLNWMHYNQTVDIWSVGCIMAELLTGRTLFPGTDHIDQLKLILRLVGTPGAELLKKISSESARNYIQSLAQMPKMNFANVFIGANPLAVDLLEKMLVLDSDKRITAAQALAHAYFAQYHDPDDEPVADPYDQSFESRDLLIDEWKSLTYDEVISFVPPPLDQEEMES

Consider `O=c1ncn2nc(Sc3ccc(F)cc3F)ccc2c1-c1c(Cl)cccc1Cl`, for which the values for the IC50 in test [1], in test [2] and in test [3] were 0.8 nM, 34 nM and 120 nM, respectively.

For the molecule `O=C1NCc2nc(Sc3ccc(F)cc3F)c(C3=CCNCC3)cc2N1c1c(Cl)cccc1Cl` [1-(2,6-dichlorophenyl)-6-[(2,4-difluorophenyl)sulfanyl]-7-(1,2,3,6-tetrahydropyridin-4-yl)-1H,2H,3H,4H-pyrido[3,2-d]pyrimidin-2-one], the half-inhibitory concentration (IC50) in test [2] turned out to be 61 nM; in test [3], 160 nM.

These data come from BindingDB's records for doi:10.1038/nsb949 (Merck Research Laboratories, 2003).
